From US5789434A, “Derivatives of substituted 4-biarylbutyric acid as matrix metalloprotease inhibitors” (priority 1995, dated 1998)

How the values were obtained:
Format in all cases: biochemical
MMP-3 = biological target: T1, MMP-3 (Homo sapiens, UniProt P08254); assay: Automated MMP Profiling Assay, MMP-3 fluorogenic; details: for IC50: 96-well automated, P218
T1 construct: Truncated Prostromelysin-257 was expressed in a soluble form in E.coli; made in house; host or cells: E. coli
Text: This assay with each invention compound was run with the three enzymes MMP-3, MMP-9 and MMP-2 in parallel as adapted for a 96-well microtitre plate using a Hamilton A® workstation.

MMP-2 = biological target: T2, MMP-2 (Homo sapiens, UniProt P08253); assay: Automated MMP Profiling Assay, MMP-2 fluorogenic; details: for IC50: 96-well automated, P218, read-out: MMP-2 Fluorogenic IC50 (profiling)
T2 sequence (P08253 110-660): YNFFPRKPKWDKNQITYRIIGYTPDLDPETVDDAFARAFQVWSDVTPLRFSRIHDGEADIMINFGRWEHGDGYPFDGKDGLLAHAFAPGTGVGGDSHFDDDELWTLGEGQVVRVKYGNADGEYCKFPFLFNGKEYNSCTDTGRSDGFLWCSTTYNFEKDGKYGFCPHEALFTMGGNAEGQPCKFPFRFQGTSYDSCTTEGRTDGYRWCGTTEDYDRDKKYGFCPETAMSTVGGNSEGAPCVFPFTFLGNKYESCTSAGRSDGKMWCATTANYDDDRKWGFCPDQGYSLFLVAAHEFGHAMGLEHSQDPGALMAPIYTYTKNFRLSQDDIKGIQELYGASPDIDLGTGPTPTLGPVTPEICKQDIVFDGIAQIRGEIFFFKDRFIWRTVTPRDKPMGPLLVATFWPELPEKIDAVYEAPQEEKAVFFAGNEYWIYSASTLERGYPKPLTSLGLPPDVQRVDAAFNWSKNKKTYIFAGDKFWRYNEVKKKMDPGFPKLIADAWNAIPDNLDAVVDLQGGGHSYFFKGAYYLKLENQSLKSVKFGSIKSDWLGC

MMP-9 = biological target: T3, MMP-9 (Homo sapiens, UniProt P14780); assay: Automated MMP Profiling Assay, MMP-9 fluorogenic; details: for IC50: 96-well automated, P218
T3 construct: from tissue; host or cells: human polymorphonuclear leukocytes (PMN) from whole blood (New York Blood Center), PMA-stimulated supernatant
T3 sequence (P14780 107-707 limits assumed): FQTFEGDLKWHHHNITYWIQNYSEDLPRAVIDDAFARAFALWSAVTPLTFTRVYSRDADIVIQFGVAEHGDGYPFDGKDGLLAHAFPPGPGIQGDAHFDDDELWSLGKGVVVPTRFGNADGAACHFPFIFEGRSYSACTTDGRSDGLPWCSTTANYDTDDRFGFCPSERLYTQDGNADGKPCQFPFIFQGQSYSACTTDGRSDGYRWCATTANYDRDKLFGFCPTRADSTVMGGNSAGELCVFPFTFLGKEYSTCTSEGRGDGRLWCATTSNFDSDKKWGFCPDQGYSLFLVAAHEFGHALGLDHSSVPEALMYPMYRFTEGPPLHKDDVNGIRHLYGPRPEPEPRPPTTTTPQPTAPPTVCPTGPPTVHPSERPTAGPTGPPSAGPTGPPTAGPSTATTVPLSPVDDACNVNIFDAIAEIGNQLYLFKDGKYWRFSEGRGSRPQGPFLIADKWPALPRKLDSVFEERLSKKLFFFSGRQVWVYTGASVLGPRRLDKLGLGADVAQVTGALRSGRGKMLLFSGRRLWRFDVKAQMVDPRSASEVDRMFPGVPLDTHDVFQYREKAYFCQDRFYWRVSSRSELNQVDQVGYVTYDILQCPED

T1 sequence (P08254 100-274 limits assumed): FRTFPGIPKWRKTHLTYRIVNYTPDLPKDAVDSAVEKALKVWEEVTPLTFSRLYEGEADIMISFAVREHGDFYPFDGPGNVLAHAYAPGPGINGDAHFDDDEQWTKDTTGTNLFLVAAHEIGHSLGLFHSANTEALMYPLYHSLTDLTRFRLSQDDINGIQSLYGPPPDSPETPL

Row | SMILES | IC50 (MMP-3) [nM] | IC50 (MMP-2) [nM] | IC50 (MMP-9) [nM] | inhibition at 5 µM (MMP-3) [%] | inhibition at 5 µM (MMP-2; at 5 μM) [%] | inhibition at 5 µM (MMP-9) [%]
1 | O=C(O)[C@H]1[C@@H](SCc2ccccc2)CC[C@@H]1C(=O)c1ccc(-c2ccc(Cl)cc2)cc1 (relative stereo) [Example 440, Cyclopentanecarboxylic acid, 2-[(4'-chloro[1,1'-biphenyl]-4-yl)carbonyl]-5-[(phneylmethyl)thio]-, (1α,2β,5α)-] | 58 | 43 | 380 |  |  | 
2 | CCOc1ccc(-c2ccc(C(=O)CC(CCc3ccccc3)C(=O)O)cc2)cc1 (stereo not drawn) [Example 156, [1,1'-Biphenyl]-4-butanoic acid, 4'-ethoxy-γ-oxo-α-(2-phenylethyl)-] | 126 | 21 | 145 |  |  | 
3 | O=C(O)[C@@H]1[C@@H](CN2C(=O)c3ccccc3C2=O)OC[C@H]1C(=O)c1ccc(-c2ccc(Cl)cc2)cc1 (relative stereo) [Example 403, 3-Furancarboxylic acid, 4-[(4'-chloro[1,1'-biphenyl]-4-yl)carbonyl]-2-[(1,3-dihydro-1,3-dioxo-2H-isoindol-2-yl)methyl]tetrahydro-, (2α,3β,4α)-] | 17 | 6.4 | 5.7 |  |  | 
4 | O=C(CC(CCCc1ccccc1)C(=O)O)c1ccc(-c2ccc(C(=O)O)o2)cc1 (stereo not drawn) [Example 69, 2-Furancarboxylic acid, 5-[4-(3-carboxy-1-oxo-6-phenylhexyl)phenyl]-] |  |  |  | 0 | 0 | 0
5 | O=C(CC(CCCc1ccccc1)C(=O)O)c1ccc(-c2ccc(OCc3ccccc3)cc2)cc1 (stereo not drawn) [Example 99, 4-[4-(4-benzyloxyphenyl)phenyl]-4-oxo-2-(3-phenylpropyl)butanoic acid] | 36 | 26 | 835 |  |  | 
6 | CCOc1ccc(-c2ccc(C(=O)CC(CCN3C(=O)CCC3=O)C(=O)O)cc2)cc1 (stereo not drawn) [Example 412, 1-Pyrrolidinebutanoic acid, α-[2-(4'-ethoxy[1,1'-biphenyl]-4-yl)-2-oxoethyl]-2,5-dioxo-] | 84 | 10 | 41 |  |  | 
7 | O=C(O)[C@H]1[C@H](COc2ccc(Cl)cc2)CC[C@@H]1C(=O)c1ccc(-c2ccc(Cl)cc2)cc1 (relative stereo) [Example 388, Cyclopentanecarboxylic acid, 2-[(4'-chloro[1,1'-biphenyl]-4-yl)carbonyl]-5-[(4-chlorophenoxy)methyl]-, (1α,2β,5β)-] | 105 | 30 | 467 |  |  | 
8 | O=C(O)c1cccc(CCC(CC(=O)c2ccc(-c3ccc(Cl)cc3)cc2)C(=O)O)c1 (stereo not drawn) [Example 148, [1,1'-Biphenyl]-4-butanoic acid, α-[2-(3-carboxyphenyl)ethyl]-4'-chloro-γ-oxo-] | 90 | 54 | 454 |  |  | 
9 | CN(C)C(=O)c1ccccc1SCC(CC(=O)c1ccc(-c2ccc(Cl)cc2)cc1)C(=O)O (stereo not drawn) [Example 436, [1,1'-Biphenyl]-4-butanoic acid, 4'-chloro-α-[[[2-[(dimethylamino)carbony]phenyl]thio]methyl]-γ-oxo-] | 158 | 286 | 519 |  |  | 
10 | CCCCNC(=O)c1cccc(CCC(CC(=O)c2ccc(-c3ccc(Cl)cc3)cc2)C(=O)O)c1 (stereo not drawn) [Example 150, [1,1'-Biphenyl]-4-butanoic acid, α-[2-[3-[(butylamino)carbonyl]phenyl]ethyl]-4'-chloro-γ-oxo-] | 371 | 201 | 957 |  |  | 
11 | O=C(CC(CCN1C(=O)c2cccc(OCc3ccccc3)c2C1=O)C(=O)O)c1ccc(-c2ccc(Cl)cc2)cc1 (stereo not drawn) [Example 407, 2H-Isoindole-2-butanoic acid, α-[2-(4'-chloro[1,1'-biphenyl]-4-yl)-2-oxoethyl]-1,3-dihydro-1,3-dioxo-4-(phenylmethoxy)-] | 69 | 39 | 36 |  |  | 
12 | O=C(C[C@@H](CCCc1ccccc1)C(=O)O)c1ccc(-c2ccc(OCc3ccccc3)cc2)cc1 [Example 101, 4-[4-(4-benzyloxyphenyl)phenyl]-4-oxo-2R-(3-phenylpropyl)butanoic acid] |  | 3320 |  | 45 |  | 10
13 | COCCOCOC[C@@H]1CC[C@H](C(=O)c2ccc(-c3ccc(Cl)cc3)cc2)[C@H]1C(=O)O (relative stereo) [Example 371, Cyclopentanecarboxylic acid, 2-[(4'-chloro[1,1'-biphenyl]-4-yl)carbonyl]-5-[[(2-methoxyethoxy)methoxy]methyl]-, (1α,2β,5β)-] | 10 | 9.1 | 26 |  |  | 
14 | O=C(CC(CCCc1ccccc1)C(=O)O)c1ccc(-c2ccc(OCc3cccc(Cl)c3)cc2)cc1 (stereo not drawn) [Example 106, [1,1'-Biphenyl]-4-butanoic acid, 4'-[(3-chlorophenyl)methoxy]-γ-oxo-α-(3-phenylpropyl)-] | 57 | 43 | 622 |  |  | 
15 | COCOC[C@@H]1CC[C@H](C(=O)c2ccc(-c3ccc(Cl)cc3)cc2)[C@H]1C(=O)O (relative stereo) [Example 364] | 46 | 40 | 180 |  |  | 
16 | CCCCOc1ccc(-c2ccc(C(=O)CC(CCc3ccccc3)C(=O)O)cc2)cc1 (stereo not drawn) [Example 160, [1,1'-Biphenyl]-4-butanoic acid, 4'-butoxy-γ-oxo-α-(2-phenylethyl)-] | 147 | 42 | 1060 |  |  | 
17 | O=C(CC(CCCc1ccccc1)C(=O)O)c1ccc(-c2ccc(/C=C\c3ccccc3)cc2)cc1 (stereo not drawn) [Example 358, [1,1'-Biphenyl]-4-butanoic acid, 4'-γ-oxo-4'-(2-phenylethenyl)-α-(3-phenylpropyl)-, (Z)-] |  | 124 |  | 39 |  | 4
18 | O=C(O)[C@H]1[C@H](COCc2ccccc2)CC[C@@H]1C(=O)c1ccc(-c2ccc(Cl)cc2)cc1 (relative stereo) [Example 365, Cyclopentanecarboxylic acid, 2-[(4'-chloro[1,1'-biphenyl]-4-yl)carbonyl]-5-[(phenylmethoxy)methyl]-, (1α,2β,5β)-] | 27 | 13 | 58 |  |  | 
19 | CC(C)(C)OC(=O)Nc1ccc(-c2ccc(C(=O)CC(CCc3ccccc3)C(=O)O)cc2)cc1 (stereo not drawn) [Example 138, [1,1'-Biphenyl]-4-butanoic acid, 4'-[[(1,1-dimethylethoxy)carbonyl]amino]-γ-oxo-α-(2-phenylethyl)-] | 905 | 665 |  |  |  | 0
20 | O=C(O)[C@H]1[C@H](CN2C(=O)c3cc(Cl)c(Cl)cc3C2=O)CC[C@@H]1C(=O)c1ccc(-c2ccc(Cl)cc2)cc1 (relative stereo) [Example 391, Cyclopentanecarboxylic acid, 2-[(4'-chloro[1,1'-biphenyl]-4-yl)carbonyl]-5-[(5,6-dichloro-1,3-dihydro-1,3-dioxo-2H-isoindol-2-yl)methyl]-, (1α,2β,5β)-] | 19 | 14 | 4.2 |  |  | 
21 | O=C(CC(CC[S+]([O-])c1ccccc1)C(=O)O)c1ccc(-c2ccc(Cl)cc2)cc1 (stereo not drawn) [Example 428, [1,1'-Biphenyl]-4-butanoic acid, 4'-chloro-γ-oxo-α-[2-(phenylsulfinyl)ethyl]-] | 53 | 16 | 119 |  |  | 
22 | O=C(CC(CCN1C(=O)c2cc3c(cc2C1=O)OCO3)C(=O)O)c1ccc(-c2ccc(Cl)cc2)cc1 (stereo not drawn) [Example 419, 6H-1,3-Dioxolo[4,5-.function.]isoindole-6-butanoic acid, α-[2-(4'-chloro[1,1'-biphenyl]-4-yl)-2-oxoethyl]-5,7-dihydro-5,7-dioxo-] | 6.7 | 31 | 0.85 |  |  | 
23 | O=C(CC(CSc1ccccc1)C(=O)O)c1ccc(-c2ccc(O)cc2)cc1 (stereo not drawn) [Example 444, [1,1'-Biphenyl]-4-butanoic acid, 4'-hydroxy-γ-oxo-α-[(phenylthio)methyl]-] | < 5000 | 43 | < 5000 |  |  | 
24 | COc1ccccc1C(=O)OC[C@@H]1CC[C@H](C(=O)c2ccc(-c3ccc(Cl)cc3)cc2)[C@H]1C(=O)O (relative stereo) [Example 381, Benzoic acid, 2-methoxy-, [2-carboxy-3-[(4'-chloro[1,1'-biphenyl]-4-yl)carbonyl]cyclopentyl]methyl ester, (1α,2β,3α)-] | 46 | 44 | 97 |  |  | 
25 | O=C(CC(CCN1C(=O)c2ccccc2C1=O)C(=O)O)c1ccc(-c2ccc(Cl)cc2)cc1 (racemic) [Example 267, 4-[4-(4-chlorophenyl)phenyl]-4-oxo-2-(2-phthalimidoethyl)butanoic acid] | 15 | 2.6 | 3 |  |  | 
26 | CC(C)(C)CC(=O)N1CC[C@H](C(=O)c2ccc(-c3ccc(Cl)cc3)cc2)[C@H]1C(=O)O [Example 171, L-Proline, 3-[(4'-chloro[1,1'-biphenyl]-4-yl)carbonyl]-1-(3,3-dimethyl-1-oxobutyl)-, trans-] | 663 | 452 | 3520 |  |  | 
